In patent US9353154B2, “Compositions for labeling nerves and methods of use” (Avelas Biosciences, Inc., priority 2010, dated 2016):
“Also recorded” adds a separate entry of the source. Where a SMILES comes first, the peptide text is derived from it. The star is where a group is joined. 6FAM = O=C1OC2(c3ccc(O)cc3Oc3cc(O)ccc32)c2cc(C(=O)*)ccc21

Legend:
[1] = Plasma digestion of Peptide A followed by LC-MS; format: in vitro ADME; settings: mouse plasma, 37° C.
Experimental: (§1) 6-Carboxylfluorescein (6-FAM) labeled peptide A (1 mg) was added to freshly prepared mouse plasma (0.5 mL). The resulting solution was gently mixed and incubated at 37° C. The reaction was followed by an LC-MS at different time points. An analogous procedure was done at room temperature with 1-5 mg of Peptide A.

[2] = Stability of peptide A in saline (control); format: physicochemical; settings: 48 h
Experimental: as §1
The peak was isolated by preparative RP-HPLC. […] As a control, peptide A is stable in saline after 48 h (Chart E&F, FIG. 5).

[3] = test system: mouse sciatic nerve; assay: In vivo sciatic nerve fluorescence contrast (nerve vs surrounding muscle); settings: 150 nmol via tail vein injection, imaging at 2 h
Experimental: (§2) Fluorescence contrast activity of was assessed using male euthymic and immunocompetent hairless SKH1-E mice (25-35 grams). On the day of study, each involved mouse was weighed and restrained using the rotating tail injector for intravenous (tail vein) injection in conscious animal.
(§3) Test agents were injected intravenously into the tail vein (30-150 nmol in 0.1 mL/mouse). The animals were returned to assigned cage and kept under controlled environmental conditions before being examined for sciatic nerve fluorescence labeling 2 hours later.
(§4) Two hours after the intravenous injection, the mice were anesthetized with a mixture of ketamine HCl/Xylazine HCl solution administered intraperitoneally. The deeply anesthetized mice were transferred on the piece of cork for blunt dissection of sciatic nerve.
After the full body imaging, the deeply anesthetized mice were transferred on the computerized fluorescent stereomicroscope equipped with appropriate excitation/emission filters to examine and record the fluorescence specific to sciatic nerve and compare it to that documented on the surrounding tissues such as muscle. All captured images were examined and analyzed using Image J to generate quantitative data.
For each experimental group, fluorescence intensities from each mouse sciatic nerve were averaged to generate the Mean±SEM value. The background was defined as the average fluorescence intensities of the muscle tissue surrounding the sciatic nerve. The fluorescence contrast (C) is defined and calculated as C=(IN−IB)/IB, where IN is the average nerve fluorescence intensity and IB is the average proximal background intensity. Constrast>0.4 is considered good.

[4] = test system: mouse skin; assay: In vivo skin fluorescence (full body imaging, skin staining activity); settings: 150 nmol via tail vein injection, imaging at 2 h
Experimental: as §2, §3, §4
Full body imaging of deeply anesthetized mouse with open surgical wound/exposed sciatic nerve was then performed using a computerized imaging system with appropriate excitation/emission filters. The full body imaging was used to calculate the skin staining activity of the visualization agents.

Compound | digested products in plasma ([1]; 3 h) | digestion in plasma (HPLC chromatogram, 220 nm absorbance) ([1]; 20 h) | digestion in plasma (HPLC chromatogram, 220 nm absorbance) ([1]; 48 h) | major truncated component after plasma digestion ([1]; peak isolated by preparative RP-HPLC) | stability in saline [2] | fluorescence nerve contrast [3] | fluorescence nerve contrast relative to peptide A [3] | fluorescence nerve contrast ([3]; listed as peptide 3) | skin fluorescence compared to peptide A [4] | skin fluorescence compared to peptide A ([4]; listed as peptide 3)
CC(=O)N[C@@H](CO)C(=O)N[C@@H](Cc1c[nH]cn1)C(=O)N[C@@H](CO)C(=O)N[C@@H](CC(N)=O)C(=O)N[C@H](C(=O)N[C@@H](CCC(N)=O)C(=O)N[C@H](C(=O)N[C@@H](CC(C)C)C(=O)N[C@@H](C)C(=O)N[C@@H](CCCCN)C(=O)N[C@@H](C)C(=O)N1CCC[C@H]1C(=O)N[C@@H](CCC(=O)O)C(=O)N[C@@H](Cc1c[nH]cn1)C(=O)N[C@H](C(=O)NCC(=O)N[C@@H](CCCCNC(=O)c1ccc2c(c1)C1(OC2=O)c2ccc(O)cc2Oc2cc(O)ccc21)C(N)=O)[C@@H](C)O)[C@@H](C)O)[C@@H](C)O [Peptide A, Ac-Ser-His-Ser-Asn-Thr-Gln-Thr-Leu-Ala-Lys-Ala-Pro-Glu-His-Thr-Gly-Lys(6FAM)-NH2] (Ac-SHSNTQTLAKAPEHTGK(6FAM)-NH2) | No detectable digested products | a new peak appeared | a new peak appeared | C-terminus lysine labeled with 6-FAM | stable |  |  |  |  | 
Ac-Glu-His-Thr-Gly-Lys(6FAM)-NH2 (Ac-EHTGK(6FAM)-NH2; SMILES CC(=O)N[C@@H](CCC(=O)O)C(=O)N[C@@H](Cc1c[nH]cn1)C(=O)N[C@H](C(=O)NCC(=O)N[C@@H](CCCCNC(=O)c1ccc2c(c1)C1(OC2=O)c2ccc(O)cc2Oc2cc(O)ccc21)C(N)=O)[C@@H](C)O) [Peptide 3] |  |  |  |  |  | high | greater | excellent; also recorded: very high | significantly less | much less
